Experimental data reported in the NIST ThermoML archive (doi:10.1016/j.fluid.2017.01.024).
Several values for one entry are separate records, joined by “and”; a condition that tells them apart may be missing. Equal values may be shown once. ± gives the expanded uncertainty stated by the source.

Settings: Liquid, Closed cell (Static) method

| SMILES | vapor or sublimation pressure (283.15 K) | vapor or sublimation pressure (293.15 K) | vapor or sublimation pressure (303.15 K) | vapor or sublimation pressure (313.15 K) [kPa] | vapor or sublimation pressure (323.15 K) | vapor or sublimation pressure (288.15 K) [kPa] | vapor or sublimation pressure (293.16 K) [kPa] | vapor or sublimation pressure (298.15 K) [kPa] | vapor or sublimation pressure (308.16 K) [kPa] | vapor or sublimation pressure (313.16 K) [kPa] | vapor or sublimation pressure (318.16 K) [kPa] | vapor or sublimation pressure (288.16 K) [kPa] | vapor or sublimation pressure (298.14 K) [kPa] | vapor or sublimation pressure (308.15 K) [kPa] | vapor or sublimation pressure (318.15 K) [kPa] |
| --- | --- | --- | --- | --- | --- | --- | --- | --- | --- | --- | --- | --- | --- | --- | --- |
| FCF [difluoromethane] | 1107.3 ± 3.5 kPa | 1474 ± 4.7 kPa | 1925.8 ± 6.1 kPa | 2476.2 ± 7.8 | 3138 ± 9.8 kPa |  |  |  |  |  |  |  |  |  |  |
| C=C(F)C(F)(F)F [2,3,3,3-tetrafluoro-1-propene] | 437.4 ± 1.2 kPa and 437.4 ± 1.6 kPa | 591.7 ± 2 kPa | 782.5 ± 2.5 kPa and 782.5 ± 1.6 kPa | 1017.8 ± 3.2 | 1301.4 ± 4.1 kPa and 1301.4 ± 2.2 kPa | 509.9 ± 1.3 | 591.7 ± 1.4 | 681.9 ± 1.4 | 893.6 ± 1.7 | 1017.8 ± 1.8 | 1153.2 ± 2 |  |  |  |  |
| CCF [fluoroethane] | 601.4 ± 1.4 kPa and 601.4 ± 2 kPa | 805.6 ± 2.6 kPa and 805.6 ± 1.6 kPa | 1057.4 ± 3.3 kPa and 1057.4 ± 1.9 kPa | 1363.6 ± 4.3 | 1730.6 ± 5.4 kPa and 1730.6 ± 2.8 kPa |  |  |  |  | 1363.6 ± 2.3 |  | 698.2 ± 1.5 | 924.8 ± 1.7 | 1203.4 ± 2.1 | 1539 ± 2.5 |
